Experimental data as given in patent US20200253211A1, “PHOTODYNAMIC INHIBITION OF MICROBIAL PATHOGENS IN PLANTS” (SUNCOR ENERGY INC, priority 2017, published 2020).
Read-outs that look alike come from different tables or passages of the source.

Experiments:
Assay type in all cases: cell-based
[1] = test system: Botrytis cinerea mycelia; assay: Photodynamic inhibition of Botrytis cinerea mycelia, percentage of dead samples after 7 days on agar; details: Table 4; EDTA-Ca 5 mM alone; with light
Procedure: (§1) In the experiments, Botrytis cinerea mycelia were grown in liquid medium for 48 hours. Small spheres of the mycelia (average diameter 2 mm) were incubated for 100 minutes with Mg-Chlorophyllin with or without 5 mM Disodium-EDTA. Samples were illuminated with 395 nm (fluence 106.6 J cm^−2) for 120 minutes and the radial growth of mycelial patches after 7 days on agar medium was measured. A sample was considered dead, if there was no growth observable after 7 days on agar plates.
as §1, with “mM EDTA (calcium or disodium).” for “mM Disodium-EDTA.”, “120 min” for “120 minutes”
as §1, with “without Baypure DS100” for “without 5 mM Disodium-EDTA.”, “120 min” for “120 minutes”
The protocol for the PDI of B. cinerea was as follows (for experiments 3 and 4 described above): • Grow B. cinerea on malt-peptone-agar for some days. • Transfer spores of B. cinerea to liquid malt-peptone medium. • Incubate for 2-3 days at 26° C. under constant agitation. • Transfer the grown mycelia (spheres of mycelia, approximately 2 mm diameter) to 24 well plates. • Add 500 μl of the PS to the well. • Incubate under agitation for 100 minutes in the dark. • Illuminate under agitation for 120 minutes. • Transfer the treated mycelia to malt-peptone-agar plates and incubate for one week at room temperature. • Evaluate by counting of dead samples.

[2] = test system: Sclerotinia homoeocarpa; assay: Radial growth of dollar spot fungus on amended Potato Dextrose Agar, dark vs light; details: for inhibition at 500 µM / inhibition at 1000 µM: Clarireedia homoeocarpa, read-out: % Inhibition
[3] = test system: Alternaria solani mycelia; assay: Photodynamic inhibition of Alternaria solani mycelia, percentage of dead samples after 7 days on agar; details: Table 5
Procedure: (§2) In the experiments, Alternaria solani mycelia were grown in liquid medium for 24 hours. Small spheres of the mycelia (average diameter 2 mm) were incubated for 100 minutes with 100 μM of Mg-Chlorophyllin with 0 to 5 mM of Disodium-EDTA. Samples were illuminated with 395 nm (fluence 106.6 J cm^−2) for 120 mins and the radial growth of mycelial patches after 7 days on agar medium was measured. A sample was considered dead, if there was no growth observable after 7 days on agar plates.
as §2, with “Chlorin E6” for “100 μM of Mg-Chlorophyllin”, “or without” for “0 to”, “disodium-EDTA.” for “Disodium-EDTA.”
The protocol for the PDI of A. solani was as follows (for Experiment 2 and 5): • Grow A. solani on tomato-agar for some days. • Transfer parts of the growing mycelium form the edge of the A. solani (no conidia) to liquid tomato medium. • Incubate overnight at 26° C. under constant agitation. • Transfer the grown mycelia (spheres of mycelia, approximately 2 mm in diameter) to 24 well plates. • Add 500 microlitres of the PS to the well (PBS for the Co and light only controls). • Incubate under agitation for 100 minutes. • Illuminate under agitation for 120 minutes. • Transfer the treated mycelia to tomato-agar plates and incubate for one week at room temperature. • Evaluate by counting of dead samples.

[4] = test system: Sclerotinia homoeocarpa; assay: Radial growth of dollar spot fungus after treatment of plugs in PBS (24 well plates), dark vs light
Procedure: In this example, control of dollar spot fungus (Sclerotinia homoeocarpa) with chlorins combined with a chelating agent was assessed. Treatments were prepared in Phosphate Buffered Saline (PBS) in 24 well plates (in duplicates for light vs. dark incubation) at desired concentrations. Then, a 5 mm diameter plug of a Sclerotinia homoeocarpa isolate (3 isolates total tested) was inoculated into the PBS and incubated at 21° C. in the dark for 2 hours. After 2 hours, one of the 24 well plates (with isolates in triplicate) is left in the dark and one 24 well plate is placed under illumination for 1 hour (all at 21° C.). Following illumination, fungal plugs are removed from PBS, blotted dry on sterile filter paper and transferred to non-amended Potato Dextrose Agar (PDA). Radial growth of the fungus is monitored daily until the growth of S. homoeocarpa reaches the edge of the Petri-dish. Illumination is provided by LED lights emitting about 1000 μmol/m^2/s photosynthetically active radiation (PAR). In this example, control of dollar spot fungus (Sclerotinia homoeocarpa) with Zinc Protoporphyrin IX (Zn-PPIX) combined with EDTA was assessed. Treatments were prepared in Phosphate Buffered Saline (PBS) in 24 well plates (in duplicates for light vs. dark incubation) at desired concentrations. Then, a 5 mm diameter plug of a Sclerotinia homoeocarpa isolate (3 isolates total tested) was inoculated into the PBS and incubated at 21° C. in the dark for 2 hours. After 2 hours, one of the 24 well plates (with isolates in triplicate) is left in the dark and one 24 well plate is placed under illumination for 1 hour (all at 21° C.). Following illumination, fungal plugs are removed from PBS, blotted dry on sterile filter paper and transferred to non-amended Potato Dextrose Agar (PDA). Radial growth of the fungus is monitored daily until the growth of S. homoeocarpa reaches the edge of the Petri-dish. Illumination is provided by LED lights emitting about 1000 μmol/m^2/s photosynthetically active radiation (PAR). In this example, control of dollar spot fungus (Sclerotinia homoeocarpa) with bacteriochlorin combined with EDTA was assessed. Treatments were prepared in Phosphate Buffered Saline (PBS) in 24 well plates (in duplicates for light vs. dark incubation) at desired concentrations. Then, a 5 mm diameter plug of a Sclerotinia homoeocarpa isolate (3 isolates total tested) was inoculated into the PBS and incubated at 21° C. in the dark for 2 hours. After 2 hours, one of the 24 well plates (with isolates in triplicate) is left in the dark and one 24 well plate is placed under illumination for 1 hour (all at 21° C.). Following illumination, fungal plugs are removed from PBS, blotted dry on sterile filter paper and transferred to non-amended Potato Dextrose Agar (PDA). Radial growth of the fungus is monitored daily until the growth of S. homoeocarpa reaches the edge of the Petri-dish. Illumination is provided by LED lights emitting about 1000 μmol/m^2/s photosynthetically active radiation (PAR). In this example, control of dollar spot fungus (Sclerotinia homoeocarpa) with Aluminum chlorin e6 combined with EDTA was assessed. Treatments were prepared in Phosphate Buffered Saline (PBS) in 24 well plates (in duplicates for light vs. dark incubation) at desired concentrations. Then, a 5 mm diameter plug of a Sclerotinia homoeocarpa isolate (3 isolates total tested) was inoculated into the PBS and incubated at 21° C. in the dark for 2 hours. After 2 hours, one of the 24 well plates (with isolates in triplicate) is left in the dark and one 24 well plate is placed under illumination for 1 hour (all at 21° C.). Following illumination, fungal plugs are removed from PBS, blotted dry on sterile filter paper and transferred to non-amended Potato Dextrose Agar (PDA). Radial growth of the fungus is monitored daily until the growth of S. homoeocarpa reaches the edge of the Petri-dish. Illumination is provided by LED lights emitting about 1000 μmol/m^2/s photosynthetically active radiation (PAR). […]

[5] = test system: E. Coli K-12; assay: E. Coli assay under LED lamps, colony count; details: Table 13; light; 1 mM Curcumin in 0.25% Tween 80 solution
Procedure: Regarding the E. Coli assay tests in the above examples, the following procedure was used: • 1. E. Coli K-12 inoculated in 5 mL TSB and placed in a shaking incubator overnight. • 2. Dilute culture in 500 mL PBS (˜10̂8 CFU/mL) and placed in shaking incubator for 30 minutes at […]. • 3.15 mL samples created using 12 mL culture and a mixture of PBS buffer and sample compounds. • 4. Placed under LED lamps for 2 hours (40 W/m^2). • 5. Samples diluted to 10^−4 and culture controls diluted to 10^−5 for plating through series dilutions. • 6. 0.1 mL plated of each sample in triplicates on TSA base (10^−3 and 10^−4 for samples. 10^−4 and 10^−5 for controls). • 7. Incubated overnight at 37° C. • 8. Colonies counted next morning and recorded.

[6] = Table 9A, dark, Ca-EDTA 100 μM, no curcumin
[7] = Table 9B, light, Ca-EDTA 100 μm, no curcumin
[8] = Table 9A, dark, Curcumin 500 μM in 0.25% Tween 80
[9] = Table 9A, dark, Curcumin 1000 μM in 0.25% Tween 80
[10] = Table 9B, light, Curcumin rate 500 μM in 0.25% Tween 80
[11] = Table 9B, light, Curcumin rate 1000 μM in 0.25% Tween 80

SMILES: O=C([O-])CN(CCN(CC(=O)[O-])CC(=O)[O-])CC(=O)[O-].[Ca+2].[Na+].[Na+] [EDTA-Ca, calcium disodium EDTA]
- dead % [1]: 0%
- % Inhibition [2, 6]: 80.8%
- Mean Radial Growth [2, 6]: 2.8 mm
- % Inhibition [2, 7]: 76.5%
- Mean Radial Growth [2, 7]: 3.2 mm

SMILES: C=Cc1c(C)c2cc3nc(c(CC(=O)O)c4[nH]c(cc5nc(cc1[nH]2)C(C)=C5CC)c(C)c4C(=O)O)[C@@H](CCC(=O)O)[C@@H]3C [Chlorin E6]
- dead % ([3]; light, 1 μM Chlorin E6): 0.0%
- dead % ([3]; light, 10 μM Chlorin E6): 8.3%
- dead % ([3]; light, 100 μM Chlorin E6): 0%
- dead % ([3]; no light, 100 μM Chlorin E6): 0.0%
- % Inhibition ([4]; Table 18A, dark, rate 10 μM): −1.49%
- Mean Radial Growth ([4]; Table 18A, dark, rate 10 μM): 11.33 mm
- % Inhibition ([4]; Table 18A, dark, rate 100 μM): 3.48%
- Mean Radial Growth ([4]; Table 18A, dark, rate 100 μM): 10.78 mm
- % Inhibition ([4]; Table 18B, light, rate 10 μM): 24.12%
- Mean Radial Growth ([4]; Table 18B, light, rate 10 μM): 8.39 mm
- % Inhibition ([4]; Table 18B, light, rate 100 μM): 11.06%
- Mean Radial Growth ([4]; Table 18B, light, rate 100 μM): 9.83 mm

SMILES: COc1cc(/C=C/C(=O)CC(=O)/C=C/c2ccc(O)c(OC)c2)ccc1O [Curcumin]
- inhibition at 500 µM [2, 8]: 11.4%
- inhibition at 1000 µM [2, 9]: 33%
- inhibition at 500 µM [2, 10]: 8.1%
- inhibition at 1000 µM [2, 11]: 28.9%
- Mean Radial Growth [2, 8]: 13.1 mm
- Mean Radial Growth [2, 9]: 9.9 mm
- Mean Radial Growth [2, 10]: 12.4 mm
- Mean Radial Growth [2, 11]: 9.6 mm
- % Inactivation [5]: 86.0%
- CFU/mL [5]: 1.24E+06 CFU/mL
- LogCFU/mL [5]: 6.09 LogCFU/mL
